The text below walks through data of patent US5589568A (priority 1994, dated 1996).

Series [1] deals with Gi. The experiment in a line: steady state GTPase activity of Gi in phospholipid vesicles.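 Note: Steady-state GTP hydrolysis by Gi measured in a detergent-free buffer containing 1.1 mM MgSO4 plus the specified guanine nucleotide.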 The format is biochemical, rabbit.
Method: Unless noted otherwise, assays of steady state GTP hydrolysis and of the binding and dissociation of guanine nucleotides were carried out in the buffer described previously, but without detergent and with 1.1 mM MgSO4 and the nucleotide specified in the text. When necessary, the concentration of free Mg^2+ was adjusted using EDTA buffers as described previously by Higashijima, 1987, and incorporated herein by reference.
The concentration of free Mg^2+ in assay medium that contains 5 mM EDTA and no added Mg^2+ is estimated to be 0.1-0.2 nM according to Brandt et al., 1988 and 1983.
Apparent affinity (af.) and apparent efficacy (ef.) were estimated by EC50 and maximum turnover number of GTPase activity.
The nature of series [2]: critical micelle concentration. The format is physicochemical. From the text: MP was synthesized and purified as described by Saito and his colleagues (Chem. Pharm. Bull., 32:2187-2193, 1984, incorporated herein by reference). The MP analogs listed in Table I were synthesized by standard solid phase methods and purified by C-4 HPLC using an acetonitrile gradient in 0.1% trifluoroacetic acid. […] The identity of the peptides was monitored by 400-MHz or 250-Mhz ^1 H NMR spectroscopy for MP and MP-X and by mass spectroscopy for the other analogs. […] BAC was purchased from Sigma, and other alkylammonium compounds were from Aldrich. The critical micelle concentration of BAC was measured in the buffer used for GTPase assays (see below) using 1,6-diphenyl-1,3,5-hexatriene according to the method of Schrock and Gennis, (J. Biol. Chem, 252:5990-5995, 1977, incorporated herein by reference). The critical micelle concentration was approximately 20 μM.

For series [3], the system named is Gi. In words: release of [α-32P]GDP from Gi (GDP exchange). In kind it is biochemical, rabbit. The method, then:
FIG. 1. Stimulation of GDP/GTP exchange by analogs of MP. The release of [α-^32 P]GDP from Gi was measured at 30° C. in the presence of the concentrations of several different MP analogs whose structures are listed in Table I: O, Mas7; Δ, Mas8; .tangle-solidup.Mas9; .quadrature., Mas19; .oval-solid., MP; .box-solid., MP-X; .gradient., MAS14; .tangle-soliddn., Mas6. First order dissociation rate constants (kdiss) were determined from duplicate four-point time courses as described under "Experimental Procedures."
Purification of αo and βγ was completed by chromatography on DEAE-Sephacel that was eluted with a gradient of 0-250 mM NaCl in the presence of 0.6% Lubrol and AMF. AMF was removed by chromatography on hydroxyapatite and Sephadex G-25 as described by Sternweis, et al., 1981, incorporated herein by reference. Gi was purified as the αβγ trimer from rabbit liver as reported by Bokoch, et al., 1984, incorporated herein by reference. The Gi used in this study could be recognized on a Western blot by anti-Gi -1 and anti-Gi -3 antibodies but not by anti-Gi -2 antibody, as documented by Mumby, et al., 1983, incorporated herein by reference. Purified recombinant αi,1 was synthesized in E. coli prepared to the specifications of Linder, incorporated herein by reference. During purification, G protein α subunits were assayed by [^35 S] GTPγ S binding according to the method of Higashijima, 1987, incorporated herein by reference). By subunits were assayed according to their ability to deactivate Gs, as detailed by Northup, 1983, incorporated herein by reference.
G proteins were reconstituted into phospholipid vesicles composed of dioleoyl-PC/bovine brain PS/1-palmitoyl,2-oleoyl-PE (3:4:3) as reported previously by Higashijima et al., 1988, incorporated herein by reference.
To measure the MP-catalyzed dissociation of [α-^32 P]GDP or [^35 S]-GTPγS, labeled nucleotide was first bound to G protein (approximately […] in 50 μl) by incubation of the Lubrol-solubilized G protein with a molar excess of nucleotide in assay buffer that contained 10 mM MgSO4 and 0.1% Lubrol. Incubation was for 20 min at 20° C. (for Go) or for 30 min at 30° C. (for Gi), In the case of [α-^32 P]GDP, EDTA was then added to 12 mM. […] Bound nucleotide was determined by binding to nitrocellulose filters as described (Ferguson, 1986), and incorporated herein by reference. […] Data were analyzed using a nonlinear least squares fitting program.

The target in series [4] is T1, Go (Bos taurus, UniProt P08239).
T1 construct: proteins were extracted from bovine cerebral cortical membranes; from tissue; host or cells: bovine brain (cerebral cortical membranes)
T1 sequence (P08239 2-354 limits assumed): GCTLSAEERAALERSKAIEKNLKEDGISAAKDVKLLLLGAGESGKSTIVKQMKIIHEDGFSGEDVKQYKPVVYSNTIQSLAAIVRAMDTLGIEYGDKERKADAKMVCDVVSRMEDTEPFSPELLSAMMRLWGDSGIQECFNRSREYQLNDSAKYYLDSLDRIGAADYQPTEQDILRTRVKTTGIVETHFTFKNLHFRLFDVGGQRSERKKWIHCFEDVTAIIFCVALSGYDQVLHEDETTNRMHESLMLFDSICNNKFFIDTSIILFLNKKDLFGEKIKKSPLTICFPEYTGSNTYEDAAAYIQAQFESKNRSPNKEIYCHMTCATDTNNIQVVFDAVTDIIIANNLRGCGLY
T1 sequence (P62871 2-340 partner limits assumed): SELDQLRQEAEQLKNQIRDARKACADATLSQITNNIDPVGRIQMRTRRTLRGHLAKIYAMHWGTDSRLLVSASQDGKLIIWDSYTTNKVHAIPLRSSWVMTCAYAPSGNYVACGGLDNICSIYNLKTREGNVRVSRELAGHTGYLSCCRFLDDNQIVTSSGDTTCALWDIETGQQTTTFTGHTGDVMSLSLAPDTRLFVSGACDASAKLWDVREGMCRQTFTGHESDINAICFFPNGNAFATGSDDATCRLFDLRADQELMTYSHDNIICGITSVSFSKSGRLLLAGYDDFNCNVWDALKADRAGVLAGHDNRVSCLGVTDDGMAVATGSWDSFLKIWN
T1 sequence (P63212 2-68 partner limits assumed): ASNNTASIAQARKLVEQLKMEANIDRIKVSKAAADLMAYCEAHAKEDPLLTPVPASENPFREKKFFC
The experiment in a line: steady state GTPase activity of Go in phospholipid vesicles. In kind it is biochemical, bovine.

The target of the next series is Gs (Homo sapiens, UniProt P63092). In words: steady state GTPase activity of Gs. The format is biochemical. The following applies: Table IV; for EC50: read-out: Gs af. (apparent affinity, estimated by EC50 of GTPase activity). The procedure, abridged:
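Steady-state GTP hydrolysis by Gs was run in buffer without detergent, with 1.1 mM MgSO4 and the specified nucleotide, and free Mg^2+ set with EDTA buffers where needed. Activity is expressed as molar turnover number. Apparent affinity and efficacy were estimated from the EC50 and the maximal turnover number of GTPase activity.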

Series [5] in a line: circular dichroism, fractional helical content. The format is physicochemical. The following applies: 20 μM peptide, pH 7.5, 25° C. The procedure: CD spectra of peptides were measured using an Aviv model 60DS spectrometer at 25° C. in 1-mm pathlength cells. Spectra were scanned at 1 nm intervals for 3 s, and three scans were averaged. Peptides were dissolved at 20 μM in 5 mM Tris-Cl, pH 7.5, in the presence or absence of sonicated 1 mM 1-palmitoyl,2-oleoylphosphatidylcholine. Fractional helical content for each peptide was calculated according to the assumption that, for 100% helix and 14 peptide bonds, θ222 =36,000 (1-2.6/14).
Fractional helical contents of some of the peptides

The target of series [6] is T1, Go. In words: rate of hydrolysis of protein-bound [γ-32P]GTP. The format is biochemical, bovine. The procedure: The rate of hydrolysis of protein-bound [γ^32 P]GTP was measured essentially as described previously (Higashijima, 1987) at 20° C. in assay medium that contained 2 ppm Lubrol 12A9. Go (10 nM) was incubated in assay medium for 16 min with 100 nM [γ-^32 P]GTP to allow nucleotide to bind. Hydrolysis was initiated by the addition of 1.3 mM MgSO4. Excess unlabeled GTP was also added such that only a single turnover was measured. The production of [^32 P]Pi was measured as described by Higashijima, 1987.

The test system of series [7] is muscarinic cholinergic receptor. The format is binding, porcine.
The nature of series [8]: lytic capacity / toxicity of mastoparan-based peptides.

Where no end group is shown, it is not given here.

Sequence of Gs (P63092 whole entry): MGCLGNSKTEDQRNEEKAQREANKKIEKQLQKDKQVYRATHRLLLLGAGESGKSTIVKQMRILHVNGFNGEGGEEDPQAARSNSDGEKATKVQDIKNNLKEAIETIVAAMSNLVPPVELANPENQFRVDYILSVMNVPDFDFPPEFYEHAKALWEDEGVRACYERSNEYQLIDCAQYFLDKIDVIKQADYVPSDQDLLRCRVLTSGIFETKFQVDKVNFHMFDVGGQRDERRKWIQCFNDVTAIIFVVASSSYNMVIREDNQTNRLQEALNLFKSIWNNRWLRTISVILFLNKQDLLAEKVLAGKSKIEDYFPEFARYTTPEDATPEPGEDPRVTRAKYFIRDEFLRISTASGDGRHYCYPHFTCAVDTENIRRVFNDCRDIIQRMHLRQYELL

On to `CCCCCCCCCCCCC[N+](C)(C)Cc1ccccc1` [BAC (C-12), benzalkonium chloride], for which the “effect on stimulation of Gi GTPase activity by Mas7 and MP” value in the series with Gi [1] (3 μg/ml BAC, 10 μM Mas7 (FIG. 3)) is “antagonized”. Also, the “Turnover number Gi 10 μg/ml” value with Gi [1] (10 μg/ml amine, 30 min at 30° C.) came to 0.08 min⁻¹. For the same compound, in the series with Gi [1] (100 μg/ml amine, 30 min at 30° C.), the “Turnover number Gi 100 μg/ml” value was found to be 0.04 min⁻¹. Besides, the critical micelle concentration in [2] (as restated) is 20 µg/mL; in series [2] (buffer used for GTPase assays, 1,6-diphenyl-1,3,5-hexatriene), “approximately 20 μM”. Further, the “BAC concentration range in which the EC50 for Mas7 increased sharply” value in the series with Gi [3] (Gi, FIG. 4B) lay in the range of 1 to 3 µg/mL. Moreover, the “inhibition of Mas7-stimulated GDP exchange on Gi” value in the series on Gi [3] (intermediate concentrations of Mas7) is given as no more than 60%. Moreover, in the series with Gi [3] (no Mas7), the “effect on basal GDP exchange rate of Gi” value is on record as “no detectable inhibition”. The “Turnover number Go 10 μg/ml” value at Go [4] (10 μg/ml amine, 15 min at 20° C., PE/PC/PS vesicles) was found to be 0.33 min⁻¹. Further, the “Turnover number Go 100 μg/ml” value at Go [4] (100 μg/ml amine, 15 min at 20° C.) worked out at 0.8 min⁻¹. The “maximal stimulation of Go” value at Go [4] (at about 30 μg/ml (~0.1 mM) BAC, FIG. 5) is on record as 20 fold.

For orientation: EC50 means the concentration needed to bring the measured effect to its halfway point. Regarding `CC[C@H](C)[C@H](N)C(=O)N[C@@H](CC(N)=O)C(=O)N[C@@H](CC(C)C)C(=O)N[C@@H](CCCCN)C(=O)N[C@@H](C)C(=O)N[C@@H](CC(C)C)C(=O)N[C@@H](C)C(=O)N[C@@H](C)C(=O)N[C@@H](CC(C)C)C(=O)N[C@@H](C)C(=O)N[C@@H](CCCCN)C(=O)N[C@@H](CCCCN)C(=O)N[C@H](C(=O)N[C@@H](CC(C)C)C(N)=O)[C@@H](C)CC` [MP], the “GTPase Gi 10 μM” value in the series with Gi [1] (10 μM peptide, 30 min at 30° C., PE/PC/PS vesicles) amounted to 0.19 min⁻¹. The “GTPase Gi 100 μM” value in the series with Gi [1] (100 μM peptide, 30 min at 30° C., PE/PC/PS vesicles) stood at 0.47 min⁻¹. The “stimulation of Gi” value was “about 15 fold” in the series with Gi [1] (GTPase assay, typical) and “about 15 fold” in the series with Gi [3] (GDP exchange assay, typical). Further, in the series with Gi [1] (Table IV), the “G1 ef. (apparent efficacy, maximum turnover number of GTPase activity)” value is recorded as “E (Excellent (E): 30-10 fold)”. Moreover, the 50% effective concentration (EC50) at Gi [1] (Table IV, read-out: G1 af. (apparent affinity, estimated by EC50 of GTPase activity)) was 10 to 30 µM; on Gs it was 3 to 10 µM; on Go [4], 3 to 10 µM. For the same compound, the “Gs ef. (apparent efficacy, maximum turnover number of GTPase activity)” value on Gs was “F (Fair (F): 2-5 fold)”. Further, the “% α Helix - PC” value in [5] (absence of 1 mM phospholipid) came out at 19%. Also, the “% α Helix + PC” value in series [5] (presence of 1 mM phospholipid) was found to be 61%. Also, on Go [4] (10 μM peptide, 15 min at 20° C., PE/PC/PS vesicles), the “GTPase Go 10 μM” value came out at 0.59 min⁻¹. Also, the “GTPase Go 100 μM” value on Go [4] (100 μM peptide, 15 min at 20° C., PE/PC/PS vesicles) amounted to 0.95 min⁻¹. For the same compound, the “Goo ef. (apparent efficacy, maximum turnover number of GTPase activity)” value at Go [4] (Table IV) was “E (Excellent (E): 30-10 fold)”. For the same compound, on Go [6], the “effect on rate of hydrolysis of bound GTP” value was “did not alter”. Besides, the “effect on affinity of the receptor for the antagonist [3H]QNB” value in series [7] is listed as “did not alter”. Further, the “effect on the receptor's affinity for acetylcholine” value in [7] (30 μM peptide, […]) is listed as “decreased the receptor's affinity for acetylcholine”.

Turning to INLKALAALKKALL-NH2 [ER25], the “toxicity (in words)” value in series [8] was “least toxic”. Moreover, the 50% effective concentration (EC50) on Gs and on Go [4] was 10 to 30 µM each time.
